Where “and” joins values, the source holds several entries; their conditions need not be identical. Equal values may be shown once.
Test: molar heat capacity at constant pressure
Conditions: 101.33 kPa, Crystal

OC[C@@H](O)[C@H](O)[C@@H](O)CO [xylitol]
Conditions | molar heat capacity at constant pressure
1 K, relaxation calorimetry | 0.0008271 J/K/mol
1.922 K, relaxation calorimetry | 0.005594 J/K/mol
2 K, relaxation calorimetry | 0.006331 J/K/mol
2.139 K, relaxation calorimetry | 0.007737 J/K/mol
2.374 K, relaxation calorimetry | 0.01068 J/K/mol
2.635 K, relaxation calorimetry | 0.0145 J/K/mol
2.93 K, relaxation calorimetry | 0.02028 J/K/mol
3 K, relaxation calorimetry | 0.02164 J/K/mol
3.25 K, relaxation calorimetry | 0.02792 J/K/mol
3.603 K, relaxation calorimetry | 0.03808 J/K/mol
4 K, relaxation calorimetry | 0.05265 J/K/mol and 0.05269 J/K/mol
4.437 K, relaxation calorimetry | 0.07193 J/K/mol
4.924 K, relaxation calorimetry | 0.1019 J/K/mol
5 K, relaxation calorimetry | 0.1065 J/K/mol
5.466 K, relaxation calorimetry | 0.1404 J/K/mol
6 K, relaxation calorimetry | 0.191 J/K/mol
6.063 K, relaxation calorimetry | 0.1974 J/K/mol
6.726 K, relaxation calorimetry | 0.2771 J/K/mol
7 K, relaxation calorimetry | 0.3152 J/K/mol
7.46 K, relaxation calorimetry | 0.3882 J/K/mol
8 K, relaxation calorimetry | 0.4898 J/K/mol
8.276 K, relaxation calorimetry | 0.5472 J/K/mol
9 K, relaxation calorimetry | 0.7186 J/K/mol
9.181 K, relaxation calorimetry | 0.7649 J/K/mol
10 K, relaxation calorimetry | 1.004 J/K/mol
10.2 K, relaxation calorimetry | 1.063 J/K/mol
11.29 K, relaxation calorimetry | 1.456 J/K/mol
12.52 K, relaxation calorimetry | 1.978 J/K/mol
13.9 K, relaxation calorimetry | 2.652 J/K/mol
15 K, relaxation calorimetry | 3.243 J/K/mol
15.43 K, relaxation calorimetry | 3.486 J/K/mol
17.11 K, relaxation calorimetry | 4.536 J/K/mol
19 K, relaxation calorimetry | 5.817 J/K/mol
20 K, relaxation calorimetry | 6.537 J/K/mol
21.08 K, relaxation calorimetry | 7.334 J/K/mol
23.4 K, relaxation calorimetry | 9.137 J/K/mol
25 K, relaxation calorimetry | 10.45 J/K/mol
25.98 K, relaxation calorimetry | 11.24 J/K/mol
28.85 K, relaxation calorimetry | 13.71 J/K/mol
30 K, relaxation calorimetry | 14.71 J/K/mol
32.02 K, relaxation calorimetry | 16.53 J/K/mol
35 K, relaxation calorimetry | 19.23 J/K/mol
35.54 K, relaxation calorimetry | 19.78 J/K/mol
39.45 K, relaxation calorimetry | 23.43 J/K/mol
40 K, relaxation calorimetry | 23.95 J/K/mol
43.77 K, relaxation calorimetry | 27.59 J/K/mol
45 K, relaxation calorimetry | 28.76 J/K/mol
48.58 K, relaxation calorimetry | 32.08 J/K/mol
50 K, relaxation calorimetry | 33.53 J/K/mol
53.91 K, relaxation calorimetry | 37.13 J/K/mol
55 K, relaxation calorimetry | 38.17 J/K/mol
59.82 K, relaxation calorimetry | 42.74 J/K/mol
60 K, relaxation calorimetry | 42.76 J/K/mol
65 K, relaxation calorimetry | 47.51 J/K/mol
66.39 K, relaxation calorimetry | 48.78 J/K/mol
70 K, relaxation calorimetry | 52.03 J/K/mol
73.7 K, relaxation calorimetry | 55.27 J/K/mol
75 K, relaxation calorimetry | 56.38 J/K/mol
80 K, relaxation calorimetry | 60.61 J/K/mol
81.8 K, relaxation calorimetry | 62.47 J/K/mol
85 K, relaxation calorimetry | 64.74 J/K/mol
90 K, relaxation calorimetry | 68.78 J/K/mol
90.79 K, relaxation calorimetry | 69.45 J/K/mol
95 K, relaxation calorimetry | 72.72 J/K/mol
100 K, relaxation calorimetry | 76.57 J/K/mol
100.73 K, relaxation calorimetry | 76.61 J/K/mol
110 K, relaxation calorimetry | 84.01 J/K/mol
110.86 K, relaxation calorimetry | 84.59 J/K/mol
120 K, relaxation calorimetry | 91.15 J/K/mol
120.92 K, relaxation calorimetry | 91.94 J/K/mol
130 K, relaxation calorimetry | 98.03 J/K/mol
130.99 K, relaxation calorimetry | 98.86 J/K/mol
140 K, relaxation calorimetry | 104.68 J/K/mol
141.06 K, relaxation calorimetry | 105.29 J/K/mol
150 K, relaxation calorimetry | 111.17 J/K/mol
151.18 K, relaxation calorimetry | 112.01 J/K/mol
160 K, relaxation calorimetry | 117.52 J/K/mol
161.27 K, relaxation calorimetry | 118.23 J/K/mol
170 K, relaxation calorimetry | 123.79 J/K/mol
171.37 K, relaxation calorimetry | 124.62 J/K/mol
180 K, relaxation calorimetry | 130 J/K/mol
181.44 K, relaxation calorimetry | 131.13 J/K/mol
188.15 K, Small sample (50 mg) DSC | 129.73 J/K/mol
189.15 K, Small sample (50 mg) DSC | 130.13 J/K/mol
190 K, relaxation calorimetry | 136.19 J/K/mol

Source: the NIST ThermoML archive (doi:10.1016/j.jct.2017.08.004)
